Test results published in ChEMBL document CHEMBL5303304, “EUbOPEN Chemogenomics Library - IncuCyte” (2023).

Assays:
Assay type in all cases: toxicity, cell-based
U2OS = experiment: Incucyte cell viability with U2OS; details: human, 10 µM, compound concentration 10 uM
HEK-293T = experiment: Incucyte cell viability with HEK293T; details: human, 10 µM, compound concentration 10 uM
Fibroblast = experiment: Incucyte cell viability with human fibroblast; details: 10 µM, compound concentration 10 uM
Also: unitless GR value; below 1 slowed growth and below 0 cell loss.

SMILES	Growth Rate (U2OS; 12 h, replicate number 1)	Growth Rate (U2OS; 12 h, replicate number 2)	Growth Rate (U2OS; 18 h, replicate number 1)	Growth Rate (U2OS; 18 h, replicate number 2)	Growth Rate (U2OS; 24 h, replicate number 1)	Growth Rate (U2OS; 24 h, replicate number 2)	Growth Rate (HEK-293T; 0 h, replicate number 1)	Growth Rate (HEK-293T; 6 h, replicate number 1)	Growth Rate (HEK-293T; 6 h, replicate number 2)	Growth Rate (HEK-293T; 12 h, replicate number 1)	Growth Rate (HEK-293T; 12 h, replicate number 2)	Growth Rate (HEK-293T; 18 h, replicate number 1)	Growth Rate (HEK-293T; 18 h, replicate number 2)	Growth Rate (HEK-293T; 24 h, replicate number 2)	Growth Rate (Fibroblast; 0 h, replicate number 1)	Growth Rate (U2OS; 0 h, replicate number 2)	Growth Rate (U2OS; 6 h, replicate number 1)	Growth Rate (Fibroblast; 6 h, replicate number 2)	Growth Rate (Fibroblast; 12 h, replicate number 2)	Growth Rate (Fibroblast; 24 h, replicate number 2)	further results
CCN1CCN(Cc2ccc(Nc3ncc(F)c(-c4cc(F)c5nc(C)n(C(C)C)c5c4)n3)nc2)CC1 [ABEMACICLIB]	0.83	0.9	0.62	0.56	0.63	0.4	-1	0.74	0.78	0.31	0.37	0.35	0.44	0.44	-1	–	–	–	–	–	Growth Rate (U2OS; 0 h, replicate number 1): -0.95; Growth Rate (HEK-293T; 0 h, replicate number 2): -0.03; Growth Rate (HEK-293T; 24 h, replicate number 1): 0.54
CC(C)(C)c1ccc2c(c1)CC[C@H]2NC(=O)Nc1cccc2[nH]ncc12 [ABT-102]	–	0.84	–	0.91	–	0.9	–	0.75	0.6	0.26	0.71	0.39	0.54	0.48	0.1	-0.93	–	–	–	–	Growth Rate (HEK-293T; 0 h, replicate number 2): 1; Growth Rate (HEK-293T; 24 h, replicate number 1): 0.22; Growth Rate (Fibroblast; 0 h, replicate number 2): 0.41; Growth Rate (Fibroblast; 12 h, replicate number 1): -0.95; Growth Rate (Fibroblast; 24 h, replicate number 1): 0.79
CC(=O)Oc1ccc2c(c1)[C@@]1(C)CCC[C@](C)(C(=O)OC(=O)[C@@]3(C)CCC[C@]4(C)c5cc(OC(C)=O)ccc5CC[C@@H]34)[C@@H]1CC2 [ACETYL PODOCARPIC ACID ANHYDRIDE]	0.57	0.76	0.73	0.96	0.84	–	0.44	–	0.34	–	0.36	0.8	0.46	0.57	0.14	0.76	0.6	0.4	0.33	0.62	Growth Rate (U2OS; 0 h, replicate number 1): -0.55; Growth Rate (U2OS; 6 h, replicate number 2): 0.92; Growth Rate (HEK-293T; 0 h, replicate number 2): 0.84; Growth Rate (Fibroblast; 18 h, replicate number 1): 0.83; Growth Rate (Fibroblast; 18 h, replicate number 2): 0.61; Growth Rate (Fibroblast; 24 h, replicate number 1): 0.96
N[C@H](C(=O)O)[C@@H]1CC(Cl)=NO1 [ACIVICIN]	0.81	–	0.99	–	0.51	–	0.17	–	0.69	0.69	0.57	0.51	0.37	0.37	-1	–	–	-0.62	0.4	0.56	Growth Rate (HEK-293T; 24 h, replicate number 1): 0.43; Growth Rate (Fibroblast; 6 h, replicate number 1): -0.24; Growth Rate (Fibroblast; 12 h, replicate number 1): 0.08; Growth Rate (Fibroblast; 18 h, replicate number 1): 0.11; Growth Rate (Fibroblast; 18 h, replicate number 2): 0.21; Growth Rate (Fibroblast; 24 h, replicate number 1): 0.22
COc1ccc(NC(=O)[C@@H]2C[C@H](C)CC[C@H]2C(C)C)cc1 [ACOLTREMON]	0.93	–	–	–	0.94	–	–	–	–	–	–	–	–	–	0.31	-0.89	-0.13	-0.34	0.74	0.67	Growth Rate (HEK-293T; 0 h, replicate number 2): 0.02; Growth Rate (Fibroblast; 18 h, replicate number 1): 0.98; Growth Rate (Fibroblast; 18 h, replicate number 2): 0.61
C=C(F)C(=O)N1CCN(c2nc(OC[C@@H]3CCCN3C)nc3c2CCN(c2cccc4cccc(Cl)c24)C3)C[C@@H]1CC#N [ADAGRASIB]	-0.94	-0.11	-0.89	-0.27	-0.76	-0.3	–	-0.26	-0.86	-0.28	-0.57	-0.25	-0.46	-0.38	-1	-0.94	-0.94	-0.86	-0.18	-0.22	Growth Rate (U2OS; 0 h, replicate number 1): -1; Growth Rate (U2OS; 6 h, replicate number 2): 0.32; Growth Rate (HEK-293T; 24 h, replicate number 1): -0.21; Growth Rate (Fibroblast; 6 h, replicate number 1): -0.47; Growth Rate (Fibroblast; 12 h, replicate number 1): -0.27; Growth Rate (Fibroblast; 18 h, replicate number 1): -0.26; Growth Rate (Fibroblast; 18 h, replicate number 2): -0.27; Growth Rate (Fibroblast; 24 h, replicate number 1): -0.3
CC/C(=C(\c1ccc(O)cc1)c1ccc(OCCN(C)C)cc1)c1ccccc1 [AFIMOXIFENE]	–	–	–	–	0.9	–	–	-0.92	-0.67	-0.87	-0.46	-0.68	-0.33	-0.26	0.22	-0.96	–	0.4	0.3	0.18	Growth Rate (HEK-293T; 24 h, replicate number 1): -0.63; Growth Rate (Fibroblast; 6 h, replicate number 1): -0.74; Growth Rate (Fibroblast; 18 h, replicate number 2): 0.13
CCc1cc2c(cc1N1CCC(N3CCOCC3)CC1)C(C)(C)c1[nH]c3cc(C#N)ccc3c1C2=O [ALECTINIB]	–	0.78	–	1	0.91	0.94	–	0.56	0.59	0.83	0.86	0.95	–	–	–	–	0.77	0.58	–	0.89	Growth Rate (U2OS; 6 h, replicate number 2): 0.78
Cc1cc([N+](=O)[O-])c(NS(=O)(=O)c2cccc(C(=O)O)c2)cc1-c1cccnc1 [ALOFANIB]	0.39	0.55	0.93	0.64	–	0.6	-0.38	–	0.57	0.91	0.68	0.65	0.78	0.79	–	0.06	0.68	0.26	0.74	0.92	Growth Rate (U2OS; 0 h, replicate number 1): -0.35; Growth Rate (U2OS; 6 h, replicate number 2): 0.28; Growth Rate (HEK-293T; 24 h, replicate number 1): 0.75; Growth Rate (Fibroblast; 0 h, replicate number 2): 0.25; Growth Rate (Fibroblast; 6 h, replicate number 1): 0.27; Growth Rate (Fibroblast; 12 h, replicate number 1): 0.56; Growth Rate (Fibroblast; 18 h, replicate number 1): 0.5; Growth Rate (Fibroblast; 18 h, replicate number 2): 0.99; Growth Rate (Fibroblast; 24 h, replicate number 1): 0.8
O=c1cc(-c2ccccc2)oc2c1ccc1ccccc12 [ALPHA-NAPHTHOFLAVONE]	0.67	0.63	0.92	0.66	–	–	–	0.31	0.53	–	0.81	0.95	0.8	0.88	0.97	-0.73	-0.07	–	–	–	Growth Rate (U2OS; 6 h, replicate number 2): 0.41; Growth Rate (Fibroblast; 24 h, replicate number 1): 0.65
CCCCC[C@H](O)/C=C/[C@H]1[C@H](O)CC(=O)[C@@H]1CCCCCCC(=O)O [ALPROSTADIL]	0.94	0.76	–	0.76	0.93	0.92	-0.3	0.47	–	0.82	0.97	–	0.98	–	-1	0.57	0.87	–	0.37	0.9	Growth Rate (HEK-293T; 0 h, replicate number 2): 0.55; Growth Rate (Fibroblast; 18 h, replicate number 2): 0.79
CC(=O)Nc1nc2c(Oc3cc(-c4ccc(C(F)(F)F)cc4)ncn3)cccc2s1 [AMG-517]	0.8	0.88	–	0.91	0.86	0.96	0.87	0.63	0.69	0.82	–	0.67	–	0.99	-0.1	-0.37	0.79	-0.6	0.8	–	Growth Rate (U2OS; 6 h, replicate number 2): 0.81; Growth Rate (HEK-293T; 24 h, replicate number 1): 0.89; Growth Rate (Fibroblast; 0 h, replicate number 2): -1; Growth Rate (Fibroblast; 6 h, replicate number 1): -0.08; Growth Rate (Fibroblast; 12 h, replicate number 1): -1
Cc1csc(-c2nnc(Nc3ccc(Oc4ncccc4-c4ccnc(N)n4)cc3)c3ccccc23)c1 [AMG-900]	0.57	0.16	0.27	0.17	0.33	0.41	-0.13	–	–	–	–	–	–	–	–	–	0.79	–	0.98	–	Growth Rate (U2OS; 6 h, replicate number 2): 0.9; Growth Rate (HEK-293T; 0 h, replicate number 2): -0.21; Growth Rate (Fibroblast; 0 h, replicate number 2): -0.73; Growth Rate (Fibroblast; 24 h, replicate number 1): 0.75
